What follows are molecules tested against Human CARM1 (PRMT4) (Homo sapiens (Human), UniProt Q86X55) (assay: CARM1 enzyme assay on peptide substrate (3H-SAM Flashplate)). Conditions: Biochemical potencies, classification codes; read-out: Biochem IC50.
Chain of Human CARM1 (PRMT4) (Q86X55 other isoform, or with tags, fused parts or gaps isoform Q86X55-1): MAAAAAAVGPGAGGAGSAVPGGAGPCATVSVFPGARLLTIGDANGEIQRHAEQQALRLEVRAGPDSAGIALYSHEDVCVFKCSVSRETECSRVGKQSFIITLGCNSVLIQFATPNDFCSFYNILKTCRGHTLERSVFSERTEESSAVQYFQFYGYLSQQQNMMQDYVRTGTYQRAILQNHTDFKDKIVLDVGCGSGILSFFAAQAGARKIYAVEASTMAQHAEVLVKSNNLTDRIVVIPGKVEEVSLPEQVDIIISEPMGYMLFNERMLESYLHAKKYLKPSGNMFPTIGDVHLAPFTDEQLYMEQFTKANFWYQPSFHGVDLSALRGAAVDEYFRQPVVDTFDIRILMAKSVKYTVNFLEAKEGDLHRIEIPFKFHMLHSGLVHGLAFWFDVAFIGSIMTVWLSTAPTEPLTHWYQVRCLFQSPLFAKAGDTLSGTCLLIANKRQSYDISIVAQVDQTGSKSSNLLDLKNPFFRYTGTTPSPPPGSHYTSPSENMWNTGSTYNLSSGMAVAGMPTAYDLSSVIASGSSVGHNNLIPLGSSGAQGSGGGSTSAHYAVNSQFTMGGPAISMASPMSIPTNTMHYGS

SMILES | IC50
CNCC(O)COc1cccc(-c2nc(-c3c(C)noc3C)c(C)c(N3CCOC(C)(C)C3)n2)c1 (stereo not drawn) [Example 200-1a] | < 100 nM
CNCC(O)COc1cccc(-c2nc(-c3c(C)noc3C)c(C)c(N3CC[C@@H](S(C)(=O)=O)C3)n2)c1 (stereo partly drawn) [Example 111-1a] | < 100 nM
NCC(O)COc1cccc(-c2nc(N3CCOCC3)cc(N3CCOCC3)n2)c1 (stereo not drawn) [Example 14-1] | < 100 nM
CNCC(O)COc1cccc(-c2nc(-c3c(C)noc3C)cc(N3C[C@@H]4C[C@H]3CN4C(C)=O)n2)c1 (stereo partly drawn) [Example 95-1a] | < 100 nM
CNCC(O)COc1cccc(-c2nc(NCC3CCN(C4COC4)CC3)c(C)c(-c3c(C)noc3C)n2)c1 (stereo not drawn) [Example 262-1a] | < 100 nM
CNCC(O)COc1cccc(-c2nc(N[C@@H]3CCOC[C@@H]3F)c(C)c(-c3c(C)noc3C)n2)c1 (stereo partly drawn) [Example 271-1a] | < 100 nM
CNC[C@@H](O)COc1ccc(Cl)c(-c2nc(-c3c(C)noc3C)c(C)c(N3CC(F)C3)n2)c1 [Example 206-3] | < 100 nM
CNC[C@@H](O)COc1ccc(Cl)c(-c2nc(-c3cnn(C)c3)c(C)c(-c3c(C)noc3C)n2)c1 [Example 239-3] | < 100 nM
CNC[C@H](O)COc1ccc(Cl)c(-c2nc(N[C@H]3CCN(C4CC4)C[C@H]3F)c(C)c(-c3c(C)noc3C)n2)c1 [Example 43-3] | < 100 nM
CNCC(O)COc1cccc(-c2nc(N[C@H]3CC[C@@H](O)CC3)cc(-c3c(C)noc3C)n2)c1 (stereo partly drawn) [Example 33-1a] | < 100 nM
CNCC(O)COc1cccc(-c2nc(N[C@@H]3CCOC[C@@H]3OC)c(C)c(-c3c(C)noc3C)n2)c1 (stereo partly drawn) [Example 220-1a] | < 100 nM
CNCC(O)COc1cc(Cl)cc(-c2nc(-c3cnc4ccccn34)c(C)c(N(C)C3CCOCC3)n2)c1 (stereo not drawn) [Example 561-1a] | < 100 nM
CNC[C@@H](O)COc1ccc(C(F)(F)F)c(-c2nc(NC3CCN(C(=O)OC)CC3)c(C)c(-c3c(C)noc3C)n2)c1 [Example 204-3] | < 100 nM
CCOC(=O)N1CCOC[C@H]1CNc1nc(-c2cc(OC[C@H](O)CNC)ccc2Cl)nc(-c2c(C)noc2C)c1C [Example 25-3] | < 100 nM
CCOC(=O)N1CCCC(Nc2nc(-c3cccc(OCC(O)CNC)c3)nc(-c3c(C)noc3C)c2C)C1 (stereo not drawn) [Example 190-1a] | < 100 nM
CNCC(O)COc1cccc(-c2nc(N[C@H]3CCC[C@H]3O)c(C)c(-c3c(C)noc3C)n2)c1 (stereo partly drawn) [Example 218-1a] | < 100 nM
CNC[C@H](O)COc1ccc(Cl)c(-c2nc(-c3c(C)noc3C)cc(N3CC4(CCN(C5CC5)CC4)C3)n2)c1 [Example 69-3] | < 100 nM
CNCC(O)COc1cccc(-c2nc(-c3c(C)noc3C)cc(N3CCN(C(=O)C4CC4)CC3)n2)c1 (stereo not drawn) [Example 133-1a] | < 100 nM
CNCC(O)COc1cccc(-c2nc(-c3c(C)noc3C)cc(N(C)CCC#N)n2)c1 (stereo not drawn) [Example 5-1a] | < 100 nM
CNCC(O)COc1cccc(-c2nc(-c3c(C)noc3C)cc(N3CCN(CCOC)CC3)n2)c1 (stereo not drawn) [Example 139-1a] | < 100 nM
CNCC(O)COc1cccc(-c2nc(-c3ccc4c(c3)OCCO4)cc(N(C)C3CCOCC3)n2)c1 (stereo not drawn) [Example 59-1] | < 100 nM
CCOC(=O)N1CCN(c2cc(-c3c(C)noc3C)nc(-c3cccc(OCC(O)CNC)c3)n2)CC1 (stereo not drawn) [Example 28-1a] | < 100 nM
CNCC(O)COc1cccc(-c2nc(NCCOC)cc(-c3cc4ccccc4o3)n2)c1 (stereo not drawn) [Example 29-1] | < 100 nM

SMILES | IC50
CNCC(O)COc1cccc(-c2nc(N[C@H]3CCOC3)cc(-c3c(C)noc3C)n2)c1 (stereo partly drawn) [Example 13-1a] | < 100 nM
CNC[C@@H](O)COc1cccc(-c2nc(-c3c[nH]c4ncncc34)cc(N(C)C3CCOCC3)n2)c1 [Example 571-1a] | < 100 nM
CNCC(O)COc1cccc(-c2nc(-c3cncnc3)cc(N(C)CCC#N)n2)c1 (stereo not drawn) [Example 18-1] | < 100 nM
CNC[C@@H](O)COc1ccc(F)c(-c2nc(-c3c(C)noc3C)c(C)c(N3Cc4cc(F)cnc4C3)n2)c1 [Example 164-3] | < 100 nM
CNCC(O)COc1cccc(-c2nc(NC3CCOC3)c(C)c(N3CC(N)CC(Cl)C3)n2)c1 (stereo not drawn) [Example 442-1a] | < 100 nM
CC[C@H]1CN(c2nc(-c3cccc(OCC(O)CNC)c3)nc(-c3c(C)noc3C)c2C)CCN1C1CC1 (stereo partly drawn) [Example 178-1a] | < 100 nM
CNCC(O)COc1cccc(-c2nc(NCC3CCN(C4CC4)CC3)c(C)c(-c3c(C)noc3C)n2)c1 (stereo not drawn) [Example 283-1a] | < 100 nM
CNC[C@@H](O)COc1ccc(Cl)c(-c2nc(-c3c(C)noc3C)c(C)c(N3CCOC3=O)n2)c1 [Example 187-3] | < 100 nM
CCS(=O)(=O)N1CCN(c2nc(-c3cccc(OCC(O)CNC)c3)nc(NC3CCOC3)c2C)CC1(C)C (stereo not drawn) [Example 448-1a] | < 100 nM
CNCC(O)COc1cccc(-c2nc(-c3cnc4cnccn34)cc(N(C)C3CCOCC3)n2)c1 (stereo not drawn) [Example 490-1a] | < 100 nM
CNCC(O)COc1cccc(-c2nc(Nc3ncc(C)cn3)cc(N(C)C3CCOCC3)n2)c1 (stereo not drawn) [Example 513-1a] | < 100 nM
CNCC(O)COc1cccc(-c2nc(N[C@H]3CCOC3=O)c(C)c(-c3c(C)noc3C)n2)c1 (stereo partly drawn) [Example 281-1a] | < 100 nM
CNC[C@@H](O)COc1ccc(Cl)c(-c2nc(N[C@H]3CCOC3)c(C)c(-c3c(C)noc3C)n2)c1 [Example 111-3] | < 100 nM
CNCC(O)COc1cccc(-c2nc(N[C@@H]3CCOC3)c(C)c(N3CCC4(CC3)CNC(=O)C4)n2)c1 (stereo partly drawn) [Example 424-1a] | < 100 nM
CCOC(=O)N1CCC(Nc2nc(-c3cc(OC[C@@H](O)CNC)ccc3Cl)nc(-c3c(C)noc3C)c2C)CC1 [Example 105-3] | < 100 nM
CCOC(=O)N1CCC[C@@H]1COc1nc(-c2cc(OC[C@H](O)CNC)ccc2Cl)nc(-c2c(C)noc2C)c1C [Example 133-3] | < 100 nM
CNC[C@@H](O)COc1ccc(Cl)c(-c2nc(NC3CC(C)C3)c(C)c(-c3c(C)noc3C)n2)c1 (stereo partly drawn) [Example 230-3] | < 100 nM
CNC[C@@H](O)COc1cccc(-c2nc(NCC3CCOCC3)c(C)c(-c3c(C)noc3C)n2)c1 [Example 183-1a] | < 100 nM
CNCC(O)COc1cccc(-c2nc(-c3c(C)noc3C)c(C)c(N3CCC4(CC3)CN(C3CC3)C4)n2)c1 (stereo not drawn) [Example 294-1a] | < 100 nM
CNCC(O)COc1cccc(-c2nc(N3CCC4(CCO4)CC3)cc(N(C)C3CCOCC3)n2)c1 (stereo not drawn) [Example 579-1a] | < 100 nM
CNC[C@@H](O)COc1ccc(Cl)c(-c2nc(-c3c(C)noc3C)c(F)c(N3Cc4nccnc4C3)n2)c1 [Example 297-3] | < 100 nM
CNCC(O)COc1cccc(-c2nc(NC[C@H]3COCCN3CC(F)F)c(C)c(-c3c(C)noc3C)n2)c1 (stereo partly drawn) [Example 274-1a] | < 100 nM
CNCC(O)COc1cccc(-c2nc(NC3CCN(C4CC4)CC3)c(C)c(-c3c(C)noc3C)n2)c1 (stereo not drawn) [Example 185-1a] | < 100 nM

SMILES | IC50
CNCC(O)COc1cccc(-c2nc(NC3(C)CCOCC3)cc(-c3c(C)noc3C)n2)c1 (stereo not drawn) [Example 85-1a] | < 100 nM
CNCC(O)COc1cccc(-c2nc(-c3cnc4n3CCNC4)cc(N(C)C3CCOCC3)n2)c1 (stereo not drawn) [Example 563-1a] | < 100 nM
CNCC(O)COc1cccc(-c2nc(NCC3CCOCC3)cc(-c3c(C)noc3C)n2)c1 (stereo not drawn) [Example 78-1a] | < 100 nM
CNCC(O)COc1cccc(-c2nc(-c3c(C)noc3C)c(C)c(N3C[C@@H](C)O[C@@H](C)C3)n2)c1 (stereo partly drawn) [Example 164-1a] | < 100 nM
CCO[C@@H]1CCC[C@@H]1N(CC)c1nc(-c2cc(OC[C@H](O)CNC)ccc2Cl)nc(-c2c(C)noc2C)c1C [Example 254-3] | < 100 nM
CCO[C@H]1CCC[C@H]1N(CC)c1nc(-c2cc(OC[C@H](O)CNC)ccc2Cl)nc(-c2c(C)noc2C)c1C [Example 255-3] | < 100 nM
CNCC(O)COc1cccc(-c2nc(-c3c(C)noc3C)cc(N3CCN(C(C)=O)C4(CC4)C3)n2)c1 (stereo not drawn) [Example 70-1a] | < 100 nM
CNC[C@@H](O)COc1ccc(Cl)c(-c2nc(-c3c(C)noc3C)c(C)c(N3Cc4cn(S(C)(=O)=O)nc4C3)n2)c1 [Example 293-3] | < 100 nM
CNC[C@@H](O)COc1ccc(Cl)c(-c2nc(N[C@@H]3CCO[C@@H](C)C3)c(C)c(-c3c(C)noc3C)n2)c1 [Example 257-3] | < 100 nM
CNC[C@H](O)COc1ccc(F)c(-c2nc(-c3c(C)noc3C)c(C)c(N3Cc4cccnc4C3)n2)c1 [Example 91-3] | < 100 nM
CNC[C@@H](O)COc1ccc(Cl)c(-c2nc(-c3c(C)noc3C)c(F)c(N3CC4(CCOCC4)C3)n2)c1 [Example 261-3] | < 100 nM
CNCC(O)COc1cccc(-c2nc(C3=CCCC3)cc(N(C)C3CCOCC3)n2)c1 (stereo not drawn) [Example 621-1a] | < 100 nM
CNC[C@@H](O)COc1ccc(Cl)c(-c2nc(N[C@@H]3CO[C@H](C)C3)c(Cl)c(-c3c(C)noc3C)n2)c1 [Example 180-3] | < 100 nM
CNC[C@@H](O)COc1cccc(-c2nc(NC3CCN(C(=O)OC)CC3)cc(-c3c(C)nnn3C)n2)c1 [Example 278-3] | < 100 nM
CNCC(O)COc1cccc(-c2nc(-c3c(C)noc3C)cc(N(CCOC)C3CCOCC3)n2)c1 (stereo not drawn) [Example 98-1a] | < 100 nM
CNCC(O)COc1cccc(-c2nc(-c3ccc(C(F)(F)F)nc3)cc(N(C)C3CCOCC3)n2)c1 (stereo not drawn) [Example 613-1a] | < 100 nM
CNCC(O)COc1cccc(-c2nc(-c3ccc4c(c3)OCCO4)cc(N(CCOC)CCOC)n2)c1 (stereo not drawn) [Example 62-1] | < 100 nM
CNCC(O)COc1cccc(-c2nc(N3CCN(C)CC3)cc(N(C)C3CCOCC3)n2)c1 (stereo not drawn) [Example 531-1a] | < 100 nM
CNC[C@@H](O)COc1ccc(Cl)c(-c2nc(-c3c(C)noc3C)c(C)c(N(C)C3CC(COC)C3)n2)c1 (stereo partly drawn) [Example 220-3] | < 100 nM
CNC[C@@H](O)COc1ccc(Cl)c(-c2nc(NC3CCN(C(=O)OC)CC3)c(C)c(-c3c(C)noc3C)n2)c1 [Example 104-3] | < 100 nM
CNCC(O)COc1cc(Cl)cc(-c2nc(N[C@@H]3CCOC3)c(C)c(-c3ccncc3)n2)c1 (stereo partly drawn) [Example 331-1a] | < 100 nM
CNC[C@@H](O)COc1ccc(F)c(-c2nc(-c3c(C)noc3C)c(C)c(N3Cc4cnn(C)c4C3)n2)c1 [Example 223-3] | < 100 nM
CNCC(O)COc1cc(O)cc(-c2nc(NC3CCOCC3)c(C)c(-c3c(C)noc3C)n2)c1 (stereo not drawn) [Example 76-1a] | < 100 nM

Reference: patent publication US20230279020A9, “CARM1 INHIBITORS AND USES THEREOF” (Epizyme, Inc., priority 2013, published 2023)
